Measured values reported in ChEMBL document CHEMBL1156238, “Allosteric inhibitors of hepatitis C virus NS5B polymerase thumb domain site II: structure-based design and synthesis of new templates” (Bioorg Med Chem, 2010).
pEC50, pIC50: −log10 of the molar value. Calls of active or inactive are those of the source. No cut-off for these calls is given here.

Assays:
Hepatitis C virus [1] = assay: Inhibition of HCV genotype 1b NS5B polymerase deltaC21 mutant; type: functional, Hepatitis C virus subtype 1b
[2] = Selectivity index, ratio of CC50 for human HBI10A cells to EC50 for Hepatitis C virus; type: toxicity, cell-based; settings: read-out: Ratio CC50/EC50
[3] = Inhibition of HCV genotype 2b NS5B polymerase deltaC21 mutant; set-up: species or system Hepatitis C virus subtype 2b
Hepatitis C virus [4] = assay: Antiviral activity against HCV infected in human HBI10A cells; type: functional, organism-based, Hepacivirus hominis
Hepatitis C virus [5] = assay: Antiviral activity against Hepatitis C virus H2B2; type: functional, organism-based, Hepacivirus hominis; settings: for pEC50: Hepatitis C virus, H2B2, read-out: EC50
[6] = Cytotoxicity against human HBI10A cells; type: cell-based
[7] = Cytotoxicity against human HBI10A cells at 20 uM; type: cell-based
Hepatitis C virus [8] = assay: Inhibition of HCV genotype 1b NS5B polymerase deltaC21 M423K mutant; type: functional, Hepatitis C virus subtype 1b
Hepatitis C virus [9] = assay: Inhibition of HCV genotype 1b NS5B polymerase deltaC21 M423K mutant at 2 uM; type: functional; settings: Hepatitis C virus subtype 1b
Hepatitis C virus [10] = assay: Inhibition of HCV genotype 1b NS5B polymerase deltaC21 mutant at 50 uM; type: functional; settings: Hepatitis C virus subtype 1b
Hepatitis C virus [11] = assay: Inhibition of HCV genotype 1b NS5B polymerase deltaC21 M423K mutant at 50 uM; type: functional; settings: Hepatitis C virus subtype 1b
Hepatitis C virus [12] = assay: Antiviral activity against Hepatitis C virus at 20 uM; settings: Hepacivirus hominis

Row | Compound | pIC50 (Hepatitis C virus [1]; read-out: IC50) | selectivity ratio [2] | pIC50 [3] | pEC50 (Hepatitis C virus [4]) | pEC50 (Hepatitis C virus [5]) | CC50 ([6]; HBI10A cells, read-out: CC50) [µM] | further results
1 | O=c1c2ccc(NC3CCN(Cc4ccccc4)CC3)c3c2n(c(=O)n1-c1cccc(Cl)c1)CCC3 | 8.10 | 5.9 | 6.85 | 5.77 | 5.31 | 10 | –
2 | O=c1c2cccc3c2n(c(=O)n1-c1cccc(Cl)c1)CCN3CCCO | 5.28 | – | 5.11 | > 4.00 | < 4.00 | – | CC50 ([6]; hbi10a): Not Active
3 | C=C[C@H]1C[N@@]2CC[C@H]1C[C@H]2[C@H](O)c1ccnc2ccc(OC)cc12 [QUININE] | – | – | – | – | – | – | inhibition (INH) [7]: Not Active
4 | O=c1[nH]c2cc(NCCO)ccc2c(=O)n1-c1cccc(Cl)c1 | 5.26 | – | < 4.30 | < 4.00 | < 4.00 | > 100 | –
5 | CC1CCC(Nc2ccc3c(=O)n(-c4cccc(Cl)c4)c(=O)n(C)c3c2)CC1 (stereo unspecified) | 5.28 | 1.6 | 5.64 | 4.66 | 4.80 | 36 | –
6 | Cn1c(=O)n(-c2cccc(Cl)c2)c(=O)c2ccc(NC3CCN(Cc4ccccc4)CC3)cc21 | 7.12 | 0.9 | 5.89 | 4.96 | < 4.60 | 9.9 | –
7 | O=c1c2ccc(NCCO)c3c2n(c(=O)n1-c1cccc(Cl)c1)CCC3 | 6.70 | 0.8 | 6.17 | 4.82 | 4.59 | 12 | –
8 | O=C1c2cccc3c(NC4CCN(Cc5ccccc5)CC4)ccc(c23)C(=O)N1c1cccc(Br)c1 | > 7.85 | 2.4 | 7.37 | 5.66 | 5.77 | 5.2 | –
9 | Cc1c(NCCO)ccc2c(=O)n(-c3cccc(Cl)c3)c(=O)n(C)c12 | 5.62 | > 2.5 | 5.28 | 4.40 | < 4.00 | > 100 | –
10 | O=C(O)c1cccc(CN2CCn3c(=O)n(-c4cccc(Cl)c4)c(=O)c4cccc2c43)c1 | 6.89 | > 3.7 | 5.70 | 4.57 | < 4.00 | > 100 | –
11 | O=C(O)c1cc(Cl)cc(-n2c(=O)c3ccc(NC4CCN(Cc5ccccc5)CC4)c4c3n(c2=O)CCC4)c1 | 6.80 | 10 | 6.14 | 5.39 | 4.70 | 42 | –
12 | COc1cccc2c1C(=O)c1c(O)c3c(c(O)c1C2=O)C[C@@](O)(C(=O)CO)C[C@@H]3O[C@H]1C[C@H](N)[C@H](O)[C@H](C)O1 [DOXORUBICIN] | – | < 1 | – | – | – | < 0.3 | pIC50 (Hepatitis C virus [1]): 5.59; pIC50 (Hepatitis C virus [8]): 4.92
13 | O=c1c2ccc(N[C@H]3CC[C@@H](C(=O)O)CC3)c3c2n(c(=O)n1-c1cccc(Cl)c1)CCC3 | 5.96 | > 7.8 | 6.31 | 4.89 | 4.77 | > 100 | –
14 | CC[n+]1c(-c2ccccc2)c2cc(N)ccc2c2ccc(N)cc21 [HOMIDIUM BROMIDE] | 6.09 | 0.85 | – | – | – | 0.7 | pIC50 (Hepatitis C virus [8]): 5.42
15 | O=C(NC1CCN(Cc2ccccc2)CC1)c1cccc2c(=O)n(-c3cccc(Cl)c3)c(=O)[nH]c12 | 7.12 | 1.8 | 6.14 | 5.40 | 5.18 | 7 | –
16 | O=c1c2ccc(NCCO)cc2n2ccnc2n1-c1cccc(Cl)c1 | < 5.00 | – | < 5.00 | < 4.00 | – | – | EC50 (Hepatitis C virus [5]): Not Active; CC50 ([6]; hbi10a): Not Active
17 | O=C(NCCO)c1cccc2c(=O)n(-c3cccc(Cl)c3)c(=O)[nH]c12 | < 5.00 | – | < 5.00 | > 4.00 | – | – | EC50 (Hepatitis C virus [5]): Not Active; CC50 ([6]; hbi10a): Not Active
18 | O=C1c2cccc3c(NCCO)ccc(c23)C(=O)N1c1cccc(Cl)c1 | 7.41 | 6.8 | 6.68 | 5.08 | 4.46 | 57 | –
19 | O=C1c2cccc3c(NCCO)ccc(c23)C(=O)N1c1cccc(Br)c1 | 7.70 | – | 6.74 | – | 4.74 | 68 | inhibition (Hepatitis C virus [9]): inactive
20 | Cn1c(=O)n(-c2cccc(Cl)c2)c(=O)c2ccc(NCCO)cc21 | 5.70 | – | 5.09 | 4.40 | < 4.00 | > 100 | –
21 | CC(C)CNc1ccc2c(=O)n(-c3cccc(Cl)c3)c(=O)n(C)c2c1 | 5.52 | > 4 | 5.30 | 4.62 | < 4.00 | > 100 | –
22 | Cc1c(NC2CCN(Cc3ccccc3)CC2)ccc2c(=O)n(-c3cccc(Cl)c3)c3nncn3c12 | 5.18 | 3 | 6.40 | 5.52 | > 4.00 | 9 | –
23 | C=C[C@H]1CN2CC[C@H]1C[C@H]2[C@H](O)c1ccnc2ccc(OC)cc12 | – | – | – | – | – | – | inhibition (Hepatitis C virus [10]): inactive; inhibition (Hepatitis C virus [11]): inactive; inhibition (Hepatitis C virus [12]): inactive
24 | Cc1c(NCCO)ccc2c(=O)n(-c3cccc(Cl)c3)c3nncn3c12 | 6.42 | – | 5.28 | 4.85 | – | – | EC50 (Hepatitis C virus [5]): Not Active; CC50 ([6]; hbi10a): Not Active
25 | O=c1c2ccc(NC3CCN(Cc4ccccc4)CC3)cc2n2ccnc2n1-c1cccc(Cl)c1 | 6.08 | 0.9 | < 5.30 | 5.43 | 5.59 | 3.2 | –
